The target in data set [1] is recombinant human dipeptidyl peptidase II (DPPII) (Homo sapiens (Human), UniProt Q9UHL4). Put plainly: In vitro inhibition assay, dipeptidyl peptidase II. The class given is biochemical.
Data set [2] has as its target recombinant human dipeptidyl peptidase IV (DPPIV) (Homo sapiens (Human), UniProt P27487). Put plainly: In vitro inhibition assay, dipeptidyl peptidase IV. In kind it is biochemical.
Another data set deals with DPP7 (Homo sapiens (Human), UniProt Q9UHL4). Description: EnPlex assay DPP7. In kind it is biochemical.
In the next data set the target is DPP4 (Homo sapiens (Human), UniProt P27487). Put plainly: EnPlex assay DPP4. The class given is biochemical.
Chain of DPP4 (P27487 whole entry): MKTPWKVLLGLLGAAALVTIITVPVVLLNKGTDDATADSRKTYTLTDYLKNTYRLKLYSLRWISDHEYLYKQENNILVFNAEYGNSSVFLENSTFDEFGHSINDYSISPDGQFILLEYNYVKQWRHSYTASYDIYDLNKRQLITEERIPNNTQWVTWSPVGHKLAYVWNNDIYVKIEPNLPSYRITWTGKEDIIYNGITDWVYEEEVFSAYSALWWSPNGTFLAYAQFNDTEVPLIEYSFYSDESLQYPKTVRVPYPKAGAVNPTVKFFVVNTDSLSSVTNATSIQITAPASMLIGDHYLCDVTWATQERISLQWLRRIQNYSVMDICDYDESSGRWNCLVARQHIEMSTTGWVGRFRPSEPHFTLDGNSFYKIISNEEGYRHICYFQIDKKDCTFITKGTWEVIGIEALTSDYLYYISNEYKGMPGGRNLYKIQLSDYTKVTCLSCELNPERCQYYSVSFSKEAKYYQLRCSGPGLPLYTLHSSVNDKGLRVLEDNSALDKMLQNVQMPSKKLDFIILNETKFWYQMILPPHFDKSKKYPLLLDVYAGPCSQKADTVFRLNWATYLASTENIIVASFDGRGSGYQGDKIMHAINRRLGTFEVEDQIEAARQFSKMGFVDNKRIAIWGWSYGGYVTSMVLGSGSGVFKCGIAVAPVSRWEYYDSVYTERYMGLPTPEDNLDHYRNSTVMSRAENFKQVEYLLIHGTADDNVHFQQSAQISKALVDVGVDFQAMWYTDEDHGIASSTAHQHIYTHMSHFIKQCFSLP
Data set [3] in a line: Oral PK profile in mice, plasma drug concentrations. The class given is in vivo, BALB/c mice. As to conditions: 3 mg/kg oral gavage, individual mice #1-#3. On the procedure: Example 8. […] Drugs dissolved in pH 2 water at 0.3 mg/mL. […] 2. Plasma prepared by centrifugation. 3. Drug concentrations measured by LCMS.
The target in data set [4] is recombinant human fibroblast activation protein (FAP) (Homo sapiens (Human), UniProt Q12884). Description: In vitro inhibition assay, fibroblast activation protein. In kind it is biochemical.
Chain of recombinant human fibroblast activation protein (FAP) (Q12884 whole entry): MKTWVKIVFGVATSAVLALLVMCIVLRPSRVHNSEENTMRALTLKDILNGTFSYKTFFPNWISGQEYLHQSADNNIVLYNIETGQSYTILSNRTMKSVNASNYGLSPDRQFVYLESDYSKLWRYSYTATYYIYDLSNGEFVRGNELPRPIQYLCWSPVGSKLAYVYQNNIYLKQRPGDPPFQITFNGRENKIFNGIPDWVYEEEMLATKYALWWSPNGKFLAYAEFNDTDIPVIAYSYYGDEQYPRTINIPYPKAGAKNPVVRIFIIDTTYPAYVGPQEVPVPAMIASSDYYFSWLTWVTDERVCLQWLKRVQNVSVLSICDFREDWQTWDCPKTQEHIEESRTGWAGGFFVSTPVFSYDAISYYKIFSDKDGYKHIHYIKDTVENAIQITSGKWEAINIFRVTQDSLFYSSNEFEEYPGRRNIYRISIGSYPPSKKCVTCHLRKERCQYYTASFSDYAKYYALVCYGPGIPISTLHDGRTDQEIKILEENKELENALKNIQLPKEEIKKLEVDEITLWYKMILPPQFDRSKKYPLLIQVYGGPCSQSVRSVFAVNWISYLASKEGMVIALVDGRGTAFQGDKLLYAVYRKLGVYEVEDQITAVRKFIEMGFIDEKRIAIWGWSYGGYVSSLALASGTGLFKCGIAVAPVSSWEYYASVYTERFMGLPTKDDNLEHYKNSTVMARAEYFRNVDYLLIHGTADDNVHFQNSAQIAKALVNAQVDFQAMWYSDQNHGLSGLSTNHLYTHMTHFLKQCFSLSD
Data set [5] concerns the target recombinant human dipeptidyl peptidase 8 (DPP8) (Homo sapiens (Human), UniProt Q6V1X1). Description: In vitro inhibition assay, dipeptidyl peptidase 8. In kind it is biochemical.
The test system of another data set is macrophages. Put plainly: Pyroptosis of macrophages in cell culture. The class given is cell-based. The conditions noted are these: Macrophage; Example 2 table; unit inferred.
Data set [6] has as its system MB49 murine urothelial carcinoma cell line. Description: MB49 efficacy studies in tumor bearing mice. In kind it is in vivo. The conditions noted are these: celecoxib alone, various concentrations, versus vehicle.
Where [7] appears, read: male, BALB/c, mouse, plasma, oral, 3 mg/kg, 5 min post-dose.
Where [8] appears, read: male, BALB/c, mouse, plasma, oral, 3 mg/kg, 20 min post-dose.
Setting [9] is: male, BALB/c, mouse, plasma, oral, 3 mg/kg, 30 min post-dose.
The mark [10] stands for this setting: male, BALB/c, mouse, plasma, oral, 3 mg/kg, 40 min post-dose.
Setting [11] is: male, BALB/c, mouse, plasma, oral, 3 mg/kg, 120 min post-dose.
[12] abbreviates: male, BALB/c, mouse, plasma, oral, 3 mg/kg, 240 min post-dose.

Here are results for 24 molecules from patent publication US11096924B2, “Combination therapies using immuno-dash inhibitors and PGE2 antagonists” (Trustees of Tufts College, priority 2016, dated 2021).

Each structure is given as a SMILES string. Values joined by “and” are separate entries in the source; they are usually repeats but may differ in a detail not shown here. Equal values may be shown once. Read-outs that look alike come from different tables or passages of the source. Some results are limits rather than exact numbers.

Chain of recombinant human dipeptidyl peptidase IV (DPPIV) (P27487 whole entry): as the sequence (P27487 whole entry) above
Chain of recombinant human dipeptidyl peptidase 8 (DPP8) (Q6V1X1 whole entry): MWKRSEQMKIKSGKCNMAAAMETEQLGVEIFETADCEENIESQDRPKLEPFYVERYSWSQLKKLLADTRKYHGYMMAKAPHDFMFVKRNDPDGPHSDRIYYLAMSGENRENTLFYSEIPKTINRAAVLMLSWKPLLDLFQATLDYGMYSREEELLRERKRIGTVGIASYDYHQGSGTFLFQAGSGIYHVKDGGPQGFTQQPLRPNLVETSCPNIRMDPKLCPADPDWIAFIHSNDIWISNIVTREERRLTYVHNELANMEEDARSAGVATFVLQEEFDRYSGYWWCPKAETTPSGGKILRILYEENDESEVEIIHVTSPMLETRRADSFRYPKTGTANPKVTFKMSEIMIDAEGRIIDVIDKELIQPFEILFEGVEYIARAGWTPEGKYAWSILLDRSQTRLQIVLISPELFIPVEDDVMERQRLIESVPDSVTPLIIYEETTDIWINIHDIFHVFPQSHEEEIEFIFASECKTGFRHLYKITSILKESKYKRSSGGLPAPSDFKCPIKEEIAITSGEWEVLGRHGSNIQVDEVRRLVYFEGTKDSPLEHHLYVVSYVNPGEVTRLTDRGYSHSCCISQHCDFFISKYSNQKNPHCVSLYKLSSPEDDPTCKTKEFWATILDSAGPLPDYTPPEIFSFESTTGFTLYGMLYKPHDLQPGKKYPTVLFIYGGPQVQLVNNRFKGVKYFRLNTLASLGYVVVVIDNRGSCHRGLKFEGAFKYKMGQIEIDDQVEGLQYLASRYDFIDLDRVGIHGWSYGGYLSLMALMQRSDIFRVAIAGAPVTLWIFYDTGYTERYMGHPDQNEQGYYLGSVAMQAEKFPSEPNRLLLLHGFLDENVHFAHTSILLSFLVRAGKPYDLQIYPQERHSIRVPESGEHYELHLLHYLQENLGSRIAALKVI

`CC1([C@H](N)C(=O)N2CCC[C@H]2B(O)O)CCCC1` (relative stereo) [4175CP]: the IC50 (usually the concentration at which inhibition is half-maximal) in data set [1] (DPP2) is 9.2 nM; in data set [2], 2.9 nM.
Turning to `N[C@H](C(=O)N1CCC[C@H]1B(O)O)C12CC3CC(CC(O)(C3)C1)C2` (relative stereo) [ARI-3102A], the values for the IC50 (in data set [1] (DPP2); against DPP7) were 81 nM and above 100 nM, respectively.
In the case of `N[C@H](C(=O)N1CCC[C@H]1B(O)O)C12CC3CC(CC(Cl)(C3)C1)C2` (relative stereo) [ARI-3102C], the half-inhibitory concentration (IC50) was 0.006 nM at DPP4 and 6 nM in data set [2].
In the case of `CC1([C@H](N)C(=O)N2CCC[C@H]2B(O)O)CCCCC1` (relative stereo) [ARI-4175CH], the “concentration in Plasma” value in data set [3] (5 min post-dose) is 230 nM and 420 nM; in data set [3] (10 min post-dose), 250 nM and 90 nM; in data set [3] (20 min post-dose), 230 nM and 270 nM; in [3] (30 min post-dose) it was 130 nM; in [3] (40 min post-dose), 250 nM and 190 nM; in [3] (60 min post-dose) it was 0 nM and 90 nM. Besides, the “concentration in Plasma” value in [3] (120 min post-dose) was 70 nM and 90 nM; in data set [3] (240 min post-dose), 10 nM. In [3] (setting [7]), this molecule gave a concentration at 5 min of 280 nM. For the same molecule, the concentration at 20 min in [3] (setting [8]) was 230 nM. In addition, in data set [3] (setting [9]), the concentration at 30 min worked out at 240 nM. Further, in [3] (setting [10]), the concentration at 40 min was found to be 170 nM. The molecule also had a concentration at 120 min in data set [3] (setting [11]) of 70 nM. This molecule also showed a concentration at 240 min in data set [3] (setting [12]) of 10 nM. Besides, the IC50 on DPP4 is 0.005 nM; in [1] (DPP2) it was 54 nM; in data set [2], 2.8 nM; on DPP7, above 100 nM. Besides, the “Average [G-CSF] at 6 hrs” value is 1100 pg/mL in the data set on G-CSF (5 μg/animal PO), 51000 pg/mL with G-CSF (20 μg/animal PO) and 60000 pg/mL in the data set with G-CSF (20 μg/animal SC).
As for `CC(C)(F)[C@H](N)C(=O)N1CCC[C@H]1B(O)O` (relative stereo) [ARI-4268], the results for the IC50 in [1] (DPP2) and in data set [2] were 68 nM and 12 nM, respectively.
Regarding `N[C@H](C(=O)N1CCC[C@H]1B(O)O)C12CC3CC(CC(C3)C1)C2` (relative stereo) [ARI-5544, Gly(1-adamantyl)-boroPro], the “concentration in Plasma” value was 110 nM and 220 nM in data set [3] (5 min post-dose); 170 nM and 180 nM in data set [3] (20 min post-dose); 220 nM and 170 nM in data set [3] (30 min post-dose); 130 nM and 140 nM in [3] (40 min post-dose); 110 nM and 90 nM in data set [3] (60 min post-dose); 30 nM and 50 nM in [3] (120 min post-dose). Also, the “concentration in Plasma” value in data set [3] (240 min post-dose) is 10 nM and 20 nM. In addition, the concentration at 5 min in [3] (setting [7]) was 160 nM. For the same molecule, the concentration at 10 min in data set [3] (male, BALB/c, mouse, plasma, oral, 3 mg/kg, 10 min post-dose) was 270 nM. The molecule also gave a concentration at 20 min in data set [3] (setting [8]) of 140 nM. The molecule further yielded a concentration at 30 min in data set [3] (setting [9]) of 110 nM. In data set [3] (setting [10]), the concentration at 40 min came out at 120 nM. The molecule further had a concentration at 60 min in [3] (male, BALB/c, mouse, plasma, oral, 3 mg/kg, 60 min post-dose) of 80 nM. The concentration at 120 min in data set [3] (setting [11]) is 30 nM. The molecule further came in with a concentration at 240 min in data set [3] (setting [12]) of 20 nM. The IC50 came to 27 nM in [1] (DPP2) and 21 nM in [1] (compound incubated at room temperature overnight at pH 2.0 or pH 7.4 prior to the assays, read-out: DPPII IC50). Further, the “Average [G-CSF] at 6 hrs” value stood at 650 pg/mL in the data set with G-CSF (5 μg/animal PO), 30000 pg/mL in the data set with G-CSF (20 μg/animal PO) and 73000 pg/mL in the data set with G-CSF (20 μg/animal SC).
For `CC1([C@H](N)C(=O)N2CCC[C@H]2B(O)O)CC1` (relative stereo) [compound 4367], the IC50 turned out to be 350 nM in data set [4], 34 nM in data set [1] (DPP2) and 1.4 nM in data set [2].
`CC1(C)CCCN[C@@H]1C(=O)N1CCC[C@H]1B(O)O` (relative stereo) [compound 5349]: the concentration for half-maximal inhibition (IC50) in [4] was found to be 14000 nM; in data set [1] (DPP2), 610 nM; in [2], 92 nM; in [5], 250 nM.
Turning to `CC1(C)CN[C@@H]1C(=O)N1CCC[C@H]1B(O)O` (relative stereo) [compound 5362], the IC50 in data set [1] (DPP2) amounted to 67 nM; in [2] it was 0.5 nM.
`CC1(C)CCN[C@@H]1C(=O)N1CCC[C@H]1B(O)O` (relative stereo) [compound 5363]: in data set [1] (DPP2), the IC50 worked out at 110 nM.
As for `C[C@H](N)C(=S)N1CCC[C@H]1B(O)O` [ARI-2243], in the data set on macrophages, the IC50 stood at 11000 nM. The “Average [G-CSF] at 6 hrs” value in the data set with G-CSF (20 μg/animal PO) amounted to 330 pg/mL; in the data set on G-CSF (50 μg/animal IP), 2100 pg/mL; in the data set with G-CSF (100 μg/animal IP) it was 2400 pg/mL; with G-CSF (300 μg/animal IP), 4400 pg/mL.
With `CC(C)(C)[C@H](N)C(=O)N1CCC[C@H]1B(O)O` [ARI-4175], the results for the “Average [G-CSF] at 6 hrs” value in the data set on G-CSF (20 μg/animal PO) and with G-CSF (20 μg/animal SC) were 19000 pg/mL and 65000 pg/mL, respectively.
For the molecule `N[C@H](C(=O)N1CCC[C@H]1B(O)O)C12CC3CC(CC(F)(C3)C1)C2` [ARI-5870], the IC50 in [1] (DPP2) is 58 nM.
In the case of `NC(N)=NCCC[C@H](N)C(=O)N1CCC[C@H]1B(O)O` [Arg-boroPro], the “Average [G-CSF] at 6 hrs” value with G-CSF (20 μg/animal PO) came to 320 pg/mL; in the data set on G-CSF (20 μg/animal SC) it was 160 pg/mL; with G-CSF (200 μg/animal PO), 930 pg/mL; in the data set on G-CSF (200 μg/animal SC) it was 670 pg/mL; in the data set on G-CSF (2000 μg/animal PO), 3500 pg/mL; in the data set with G-CSF (2000 μg/animal SC) it was 31000 pg/mL.
Consider `N[C@@H](CC(=O)N1CCn2c(nnc2C(F)(F)F)C1)Cc1cc(F)c(F)cc1F` [Sitagiptin, reference compound], for which the results for the “Average [G-CSF] at 6 hrs” value in the data set with G-CSF (100 μg/animal SC), in the data set on G-CSF (1000 μg/animal PO) and in the data set with G-CSF (2000 μg/animal SC) were 100 pg/mL, 340 pg/mL and 950 pg/mL, respectively.
As for `Cc1ccc(-c2cc(C(F)(F)F)nn2-c2ccc(S(N)(=O)=O)cc2)cc1` [celecoxib], the tumor growth rates result in data set [6] is given as “no observed differences in tumor growth rates compared to control”.
In the data set with macrophages, `C[C@H](N)C(=O)N1CCC[C@H]1B(O)O` [compound 1129] returned an IC50 above 10000 nM.
`N[C@H](C(=O)N1CCC[C@H]1B(O)O)C1CCCCC1` [compound 1797, Crg-boroPro]: the IC50 with macrophages is 23 nM. Also, in the data set on G-CSF (20 μg/animal PO), the “Average [G-CSF] at 6 hrs” value amounted to 20000 pg/mL.
`CC(C)[C@H](N)C(=S)N1CCC[C@H]1B(O)O` [compound 2401]: in the data set on macrophages, the IC50 was above 20000 nM.
Same read-out and setting: with `CN(CB(O)O)C(=O)[C@@H](N)CCC(=O)O` [compound 2408] the figure was above 10000 nM.
Regarding `CC[C@H](C)[C@H](N)C(=O)N1CCC[C@H]1B(O)O` [compound 4316, theoric-boroPro], the IC50 in the data set with macrophages is 21 nM. The “Average [G-CSF] at 6 hrs” value in the data set with G-CSF (20 μg/animal PO) came out at 5000 pg/mL.
As to `CC[C@@H](C)[C@H](N)C(=O)N1CCC[C@H]1B(O)O` [compound 4317], in the data set on macrophages, the IC50 came out at 13 nM.
Consider `N[C@H](C(=O)N1CCC[C@H]1B(O)O)C1(C(F)(F)F)CC1` [compound 4949], for which the IC50 in [1] (DPP2) is 39 nM.
For the molecule `N[C@@H](CCC(=O)O)C(=O)N1CCC[C@H]1B(O)O` [compound 8120, Glu-boroPro], the “Average [G-CSF] at 6 hrs” value in the data set on G-CSF (20 μg/animal PO) worked out at 340 pg/mL; in the data set with G-CSF (200 μg/animal PO) it was 160 pg/mL; in the data set on G-CSF (200 μg/animal SC), 210 pg/mL; with G-CSF (2000 μg/animal PO) it was 2300 pg/mL; in the data set on G-CSF (2000 μg/animal SC), 16000 pg/mL.
